Structure (SMILES)	melting point [°C]
CCOc1cc(C2=NN(c3ccccc3)C(=O)[C@H]3CC=CC[C@@H]23)ccc1OC (relative stereo)	97 to 99
Nc1cc(Nc2cccc(Cl)c2)ncn1	171 to 172
COc1ccc(C2=NN(CCCCOc3ccc(C(=O)O)cc3)C(=O)[C@H]3CC=CC[C@@H]23)cc1Cl (relative stereo)	169 to 171
CC(c1ccc(F)cc1)N1CC(C)(C)C(Oc2ccc(C#N)c(C(F)(F)F)c2)C1=O (configuration not stated)	82 to 83
COC(=O)CNS(=O)(=O)c1c(C(=O)OC)sc2ccccc12	148 to 150
COc1cccc2c1C(C)(C)c1ccccc1C2	62 to 64
CNS(=O)(=O)c1ccc(C2=C(c3ccccc3)C(=O)C(C)(C)O2)cc1Cl	136 to 137
OCC1(c2ccccc2)COc2ccccc2O1 (configuration not stated)	114 to 116
COc1cc2c(cc1-c1ncco1)-c1c(-c3cccs3)c3c(n1CC2)C(=O)N(C(C)(C)C)CCC3	230 to 231
O=[N+]([O-])c1ccc(F)c(-n2nc3c(c2Cl)CCCC3)c1	109
CN1C(=O)C(C(=O)OCCN2CCOCC2)N=C(c2ccccc2)c2cc(Cl)ccc21 (configuration not stated)	162 to 166
COC1=NS(=O)(=O)N(C)C(OCCc2ccccc2)=N1	74 to 77
Cc1c(C(=O)Nc2ccc(N3CCC(N4CCOCC4)CC3)c(C#N)c2)cnn1-c1ccc(F)c(Cl)c1	266
COCCNC(=O)c1cccc(-c2cccc3cc(Cc4cc(F)cc(F)c4)sc23)c1	96 to 97
CCOC(=O)c1cc2cc(OCCNC[C@H](O)COc3ccccc3)ccc2s1	99 to 100
OCCCCOc1nc(F)c(Cl)cc1Cl	38 to 39
O=S(=O)(Oc1ccc(OCc2ccc3ccccc3n2)cc1C1(c2ccccc2)CC2CCC1C2)C(F)(F)F (configuration not stated)	131 to 132
C=C(CCl)COc1ccc(C(=O)OC)cc1CS(=O)(=O)c1ccccc1	92 to 93
Cn1cc(-c2ccccc2)c(=O)c(-c2ccccc2C(F)(F)F)c1	168 to 171
O=C(O)c1c([N+](=O)[O-])ccc2c1OCO2	166 to 173
Cc1nc2c(cnn2-c2c(Cl)cc(C(F)(F)F)cc2Cl)c(=O)n1C	195
CC(C)(C#N)c1c(Cl)cc(-n2nc(C(=O)O)c(=O)[nH]c2=O)cc1Cl	157
NS(=O)(=O)c1ccc(C2=C(c3ccc(F)c(F)c3)CCC2)cc1	147 to 148
c1ccc(Oc2nc(Oc3ccccc3)nc(N3CCOCC3)n2)cc1	166 to 168
N#Cc1ccccc1-c1ccc2[nH]ncc2c1	163 to 170

Structure (SMILES)	melting point [°C]
Cn1c2ccccc2c2oc(C#N)cc(=O)c21	190 to 192
COC(=O)C(NS(=O)(=O)c1ccc(-c2ccc(NC(=O)c3oc4cccc(C5COC(C)(C)O5)c4c3C)cc2)cc1)C(C)C (configuration not stated)	192 to 194
O=C(NC1CCc2n[nH]cc2C1)[C@@H]1CCCN1C(=O)[C@@H](CC1CCCCC1)NS(=O)(=O)Cc1ccccc1 (some centres not stated)	106 to 109
CS(=O)(=O)c1ccc2c(c1)[nH]c(=O)c(=O)n2C1CCCCC1	> 300
N#CCc1ccc(OC(F)F)c(OC2CCCC2)c1	39 to 41
COc1ccc(CN2C(=O)[C@@H](NC(=O)Cc3ccccc3)[C@H]2CO)c(OC)c1 (relative stereo)	152 to 154
Cc1cnnc(-c2cccc(C(F)(F)F)c2)c1	114 to 116
CCCCn1cc(C(=O)O)c(=O)c2oc3ccc(Cl)cc3c(=O)c21	271 to 273
N#Cc1ccc(-c2ccno2)cc1	148 to 149
CC12CC(=O)C3C(CCC4CC5OC5CC43C)C1CCC2=O (configuration not stated)	166 to 167
CCc1nc2c(N)nc3ccccc3c2n1CCCCS(C)(=O)=O	182 to 185
CC(COc1ccc2c(c1)CC/C(=C\c1cccs1)C2=O)n1ccnc1 (configuration not stated)	160 to 162
CC(C)(C)OC(=O)N1CC=C(c2ccnc(C(=O)N(O)Cc3ccccc3)c2)CC1	125
CCOC(=O)COc1ccc(C(=O)c2ccccc2O)c(Cl)c1Cl	108 to 110
COC(=O)c1ccc2c(c1)C(C#N)=CCC2	73 to 75
Cc1nc(N)nc(N)c1CCCC(C)c1ccc(-c2cc(F)cc(F)c2)cc1 (configuration not stated)	129 to 134
COC(=O)CN1C(=O)c2ccccc2Nc2ccc(OCc3cccc4ccccc34)cc21	85 to 92
COc1cc(C)ccc1OC(=O)c1ccccc1	73 to 75
CC(=O)OCCOc1ccc(C2C(=O)Oc3c2cc(C(C)(C)C)cc3C(C)(C)C)cc1 (configuration not stated)	75 to 78
CCCCCCCCCCCCC#CC#CCCCCCCCC(C(N)=O)C(C)c1ccccc1 (configuration not stated)	65.5 to 66.5
CS(=O)(=O)Nc1c([N+](=O)[O-])cnn1-c1c(Cl)cc(C(F)(F)F)c(F)c1Cl	107 to 115
CCCCc1nc(C(=O)O)c(S(=O)(=O)c2ccccc2)n1Cc1ccc(-c2ccccc2C(=O)O)cc1	155
CCOC(=O)c1cn(CCc2cccc(F)c2)c2cc(C3CC3)nn2c1=O	160 to 165
CCCCCCCC(c1cc(C)cc(N=Nc2ccc(C)cc2[N+](=O)[O-])c1O)c1cc(C)cc(N=Nc2ccc(C)cc2[N+](=O)[O-])c1O (configuration not stated)	145
COc1cccc(OC)c1C(=N)N	170 to 174

Structure (SMILES)	melting point [°C]
O=C(O)CCCc1ccc(NS(=O)(=O)c2cccc(Cl)c2)cn1	141 to 142
CC(C)(C)OC(=O)N[C@H](CO)Cc1ccc(-c2ccccc2)cc1	116
COC(=O)c1cc2cccc(C=O)c2[nH]1	87
COC(=O)c1ccccc1S(=O)(=O)NC(=O)Nc1n[nH]c(SC)n1	147 to 153
CNC(=O)[C@H]1O[C@@H](n2cnc3c(NCc4cc(Cl)ccc4OCc4ccccc4)ncnc32)[C@H](O)[C@@H]1N	114 to 115
Clc1cccc(-c2cc(OCC3CO3)no2)c1 (configuration not stated)	86 to 87
CCOC(=O)CC[C@H](NC(=O)c1ccc(CCCCc2c(N)nc(N)nc2O)cc1)C(=O)OCC	75 to 76
Cn1nnc2cccc(C(O)c3cccc(F)c3)c21 (configuration not stated)	152
CC(C)C(CCCCCCCC(=O)O)NCc1ccc(F)cc1 (configuration not stated)	78 to 82
CC(=O)OC1Cc2ccccc2N(C#N)c2ccccc21 (configuration not stated)	108 to 119
CC(C)(C)[Si](C)(C)Oc1ccc(C(=O)O)cc1C12CC3CC(CC(C3)C1)C2	250 to 252
NC(=O)c1cc(OCCNCC(O)c2ccco2)ccc1O (configuration not stated)	169 to 171
Cc1nc2c(-c3ccc(N4CCN(C)CC4)cc3)cnn2c(N)c1-c1cccc(Cl)c1	113 to 115
CCOC(=O)c1nc(NC(C)=O)sc1Cc1ccc(SC)cc1	205 to 206
O=C(CCCN1CCCC(c2cccc(O)c2)C1)c1ccc(F)cc1 (configuration not stated)	77 to 78
Cc1ccc(Nc2ncc(C#N)c(-c3ccc(C(C)(C)N)cc3)n2)cc1F	209
COc1cc(CN2CCN(C(=O)c3ccc4c(c3)C(=O)C3(CC3)O4)CC2)cc(OC)c1OC	196 to 198
CCOc1ccc2c(c1)CCc1c(C#N)cccc1S2	124 to 126
COc1cccc(OC)c1C(=O)Nc1oncc1-c1ccc(C(F)(F)F)cc1	199 to 201
O=C(c1ccc([N+](=O)[O-])c([N+](=O)[O-])c1)N1CCOCC1	136 to 137
CCCCCN(CCc1ccccc1)C(=O)NCC(C)Cc1ccncc1 (configuration not stated)	49 to 50
Cc1nc(-n2ccc(OCc3ccc(F)cc3)cc2=O)sc1C(=O)O	> 300
Cc1ccc(NC(=O)C(CS)Cc2ccccc2)c(C)c1C(=O)O (configuration not stated)	180 to 181
COc1ccc2c(c1)c(Cc1cc(=O)n(-c3cccc(NC(C)=O)c3)[nH]1)c(C)n2C(=O)c1ccc(Cl)cc1	124 to 126
COc1ccc(-c2ccnc3c(C(=O)c4cccs4)cnn23)cc1NC(=O)c1ccccc1	201 to 203

Structure (SMILES)	melting point [°C]
COC(=O)C(C)(C)Cc1c(SC(C)(C)C)c2cc(OCc3ccc4cc(F)ccc4n3)ccc2n1Cc1ccc(Cl)cc1	165 to 167
COc1ccc2c(c1)CCC1C2CCC2(C)C(=O)C(C)CC12 (configuration not stated)	115 to 116
CCOC(=O)c1c(O)c2c(CC)nc(CC)cc2[nH]c1=O	159 to 160
Cc1c(CC(=O)O)c2cc(O)ccc2n1C(=O)c1cccc(Cl)c1	158 to 160
CCCc1c(OCCCCCCc2cccc(OCCCCCC(=O)O)c2CCC(=O)O)ccc2c1CCCC2=O	100 to 101
CCOC(=O)c1cn(-c2cc(N)c(F)cn2)c2c(Cl)c(F)c(F)cc2c1=O	140 to 148
CC(C)Cn1c(CNC(=O)OC(C)(C)C)c(-c2cccs2)c2cc(O)ccc2c1=O	216 to 217
COc1nc(C)c(N2CCCn3c2nc2c(Br)ccc(C(OC(F)F)C(F)(F)F)c23)c(C)n1 (configuration not stated)	211 to 213
CCCCCC1CC=C(c2ccc(Br)cc2)CC1 (configuration not stated)	67 to 68
CCC(=O)C1=C(O)CC(c2c(C)c(C)c(C)c(C)c2C)CC1=O (configuration not stated)	84
CC(C)COc1ccccc1C1=NC(=O)C2=NC=NC2=N1	272 to 273
Cc1cc(C(F)(F)F)nc(-c2ccc(O)cc2)n1	131 to 132
Cc1nnc2n1-c1sc(CCc3ccc(-c4ccccc4)cc3)cc1C(c1ccccc1Cl)=NC2	163 to 165
C/C(=C(\C#N)C(N)=S)N1CCCN(c2cccc([N+](=O)[O-])c2)CC1	157 to 158
O=C(O)CCC(=O)OCCc1ccccc1	60 to 62
CONC(=N)c1ccc(-c2ccc(-c3ccc(C(=N)NOC)o3)cc2)cc1	194 to 196
COc1ccc(CCCNS(=O)(=O)Cc2ccc3[nH]cc(CC#N)c3c2)cc1	131 to 133
CC(C)(C)NC(=O)C(C#N)=NO	218 to 219
O=C(c1cccnc1)C(Cc1ccc(F)cc1)c1ccccc1 (configuration not stated)	100 to 102
Cc1cn(C2CC(O)C(CO)S2)c(=O)[nH]c1=O (configuration not stated)	213 to 215
O=C1Nc2ccccc2Cc2nccn21	238 to 240
O=C1NC(=O)c2c1cc1ccc3c(c1c2-c1ccncc1)OCO3	299 to 302

From a melting point compilation (Tetko et al.; mined from patent text by program, amines drawn as free bases though some values may be those of a salt)
